Data reported in patent publication US20110028566A1, “COMPOSITIONS AND PRODUCTS CONTAINING CYCLOALIPHATIC DIOL ANTIMICROBIAL AGENTS AND METHODS OF USING THE COMPOSITIONS AND PRODUCTS” (EASTMAN CHEMICAL COMPANY, priority 2009, published 2011).

Columns and labels:
Test in all cases: Microbial challenge testing in BPW
Assay type in all cases: cell-based
Escherichia coli = tested on: Escherichia coli
Protocol: (§1) The microorganisms used in challenge tests are given in Table 3, designated as either ATCC (American Type Culture Collection) or wild type. These wild type organisms were problematic organisms previously isolated from chemical products. In the description for each organism, the bacteria are indicated as either GN (Gram negative) or GP (Gram positive).
(§2) All of the microorganisms were grown in Tryptose Soy Broth (TSB), DIFCO™ available from Becton, Dickinson and Company, containing 1% dextrose. Aspergillus niger and Candida albicans were incubated at 22° C.±2° C. for at least 96 hours. All bacteria were incubated at 35° C.±2° C. in a humidified incubator for at least 96 hours.
(§3) The following procedure was followed to determine the amount of each challenge material (inoculum broth) required to produce a 10^8 cfu/mL challenge, which is equivalent to a final test-sample microbial concentration of 10^5 to 10^6 cfu (colony-forming units)/mL.
(§4) Using a sterile serological pipette, 1 mL of the growth from each TSB culture was transferred into tubes containing 9 mL phosphate buffer (pH 7.2) and mixed thoroughly. This process was repeated to make serial 1:10 dilutions. Then 0.1 mL of each sample and dilution was inoculated onto agar plates to produce the equivalent of a further 1:10 dilution. C. albicans and A. niger were inoculated onto SDA and bacteria were inoculated onto Plate Count Agar (PCA), DIFCO™ available from Becton, Dickinson and Company. The 0.1 mL aliquots were evenly distributed on the plates using the spread-plate technique. The spread-plate technique is performed by spreading the aliquot over the entire plate surface using a sterile spreading rod while rotating the plate with a rotary auto-plater. After the inoculum was absorbed completely, each plate was inverted and incubated (fungi at 22° C.±2° C. and bacteria at 35° C.±2° C.).
(§5) After incubation for at least 48 hours, colonies that had developed on the agar plates were counted and recorded with the corresponding dilution. If counting had to be delayed temporarily, plates were refrigerated, preferably no more than 24 hours, until they could be counted. The number of cfu/mL was determined by multiplying the count by the dilution factor for that particular plate.
(§6) Turbidity in Nepholemetric Turbidity Units (NTU) was measured for each serial dilution using the HF-Micro 100 Model Turbidimeter. For each microorganism, the plate counts were compared to the turbidity readings.
(§7) Control substrates (“broth alone”) were prepared for each microorganism separately in triplicate by adding 13.5 mL of BPW (pH 7.0) containing 1% (w/v) dextrose to each 20-mL glass tube; then adding 1.5 mL challenge material to produce a final concentration at time zero of 10^5 to 10^6 cfu/mL and a total volume of 15 mL.
(§8) Test sample substrates were prepared containing each test material (1,4-CHDM, etc) or combination of test materials at the concentrations shown in Tables 5 and 6. Sample substrates were prepared in triplicate, except those substrates containing PE or CG which were prepared in duplicate. Substrates were prepared by adding BPW containing 1% (w/v) dextrose to each 20-mL glass tube, then adding the test material in the amount appropriate to achieve the desired weight/volume percent (g/100 mL) and to obtain a total volume of BPW with dextrose and test material of 13.5 mL. Then 1.5 mL challenge material was added to produce a final concentration at time zero of 10^5 to 10^6 cfu/mL of the respective organism and a total test sample substrate volume of 15 mL.
(§9) After mixing, all challenged substrates were incubated at 35° C.±2° C. for 14 days and then at ambient room temperature.

Proteus vulgaris = tested on: Proteus vulgaris
Protocol: as §1, §2, §3, §4, §5, §6, §7, §8, §9

Pseudomonas aeruginosa = tested on: Pseudomonas aeruginosa
Protocol: as §1, §2, §3, §4, §5, §6, §7, §8, §9

Staphylococcus aureus = tested on: Staphylococcus aureus
Protocol: as §1, §2, §3, §4, §5, §6, §7, §8, §9

[1] = tested on: Staphylococcus epidermidis
Protocol: as §1, §2, §3, §4, §5, §6, §7, §8, §9

Streptococcus mutans = tested on: Streptococcus mutans
Protocol: as §1, §2, §3, §4, §5, §6, §7, §8, §9

Compound: OCC1CCCC(CO)C1 (centres unmarked) [1,3-CHDM]
- Grade code E. coli (Escherichia coli; 1.25%, 14 days incubation): 4 (1001 to 10,000 colonies (thus 10,000 cfu/mL to 100,000 cfu/mL))
- Grade code E. coli (Escherichia coli; 1.25%, 30 days incubation): 4 (1001 to 10,000 colonies (thus 10,000 cfu/mL to 100,000 cfu/mL))
- Grade code E. coli (Escherichia coli; 2.5%, 3 days incubation): 5 (More than 10,000 colonies estimated (thus >100,000 cfu/mL))
- Grade code E. coli (Escherichia coli; 2.5%, 14 days incubation): 4 (1001 to 10,000 colonies (thus 10,000 cfu/mL to 100,000 cfu/mL))
- Grade code E. coli (Escherichia coli; 2.5%, 30 days incubation): 4 (1001 to 10,000 colonies (thus 10,000 cfu/mL to 100,000 cfu/mL))
- Grade code P. vulqaris (Proteus vulgaris; 0.5%, 3 days incubation): 5 (More than 10,000 colonies estimated (thus >100,000 cfu/mL))
- Grade code P. vulqaris (Proteus vulgaris; 0.5%, 13 days incubation): 5 (More than 10,000 colonies estimated (thus >100,000 cfu/mL))
- Grade code P. vulqaris (Proteus vulgaris; 0.5%, 30 days incubation): 5 (More than 10,000 colonies estimated (thus >100,000 cfu/mL))
- Grade code P. vulqaris (Proteus vulgaris; 1.25%, 3 days incubation): 5 (More than 10,000 colonies estimated (thus >100,000 cfu/mL))
- Grade code P. vulqaris (Proteus vulgaris; 1.25%, 13 days incubation): 4 (1001 to 10,000 colonies (thus 10,000 cfu/mL to 100,000 cfu/mL))
- Grade code P. vulqaris (Proteus vulgaris; 1.25%, 30 days incubation): 4 (1001 to 10,000 colonies (thus 10,000 cfu/mL to 100,000 cfu/mL))
- Grade code P. aeruginosa (Pseudomonas aeruginosa; 0.5%, 3 days incubation): 5 (More than 10,000 colonies estimated (thus >100,000 cfu/mL))
- Grade code P. aeruginosa (Pseudomonas aeruginosa; 0.5%, 13 days incubation): 5 (More than 10,000 colonies estimated (thus >100,000 cfu/mL))
- Grade code P. aeruginosa (Pseudomonas aeruginosa; 0.5%, 30 days incubation): 5 (More than 10,000 colonies estimated (thus >100,000 cfu/mL))
- Grade code P. aeruginosa (Pseudomonas aeruginosa; 1.25%, 3 days incubation): 4 (1001 to 10,000 colonies (thus 10,000 cfu/mL to 100,000 cfu/mL))
- Grade code P. aeruginosa (Pseudomonas aeruginosa; 1.25%, 13 days incubation): 4 (1001 to 10,000 colonies (thus 10,000 cfu/mL to 100,000 cfu/mL))
- Grade code P. aeruginosa (Pseudomonas aeruginosa; 1.25%, 30 days incubation): 4 (1001 to 10,000 colonies (thus 10,000 cfu/mL to 100,000 cfu/mL))
- Grade code P. aeruginosa (Pseudomonas aeruginosa; 2.5%, 3 days incubation): 4 (1001 to 10,000 colonies (thus 10,000 cfu/mL to 100,000 cfu/mL))
- Grade code P. aeruginosa (Pseudomonas aeruginosa; 2.5%, 13 days incubation): 4 (1001 to 10,000 colonies (thus 10,000 cfu/mL to 100,000 cfu/mL))
- Grade code P. aeruginosa (Pseudomonas aeruginosa; 2.5%, 30 days incubation): 4 (1001 to 10,000 colonies (thus 10,000 cfu/mL to 100,000 cfu/mL))
- Grade code S. aureus (Staphylococcus aureus; 0.5%, 3 days incubation): 4 (1001 to 10,000 colonies (thus 10,000 cfu/mL to 100,000 cfu/mL))
- Grade code S. aureus (Staphylococcus aureus; 0.5%, 14 days incubation): 4 (1001 to 10,000 colonies (thus 10,000 cfu/mL to 100,000 cfu/mL))
- Grade code S. aureus (Staphylococcus aureus; 0.5%, 30 days incubation): 4 (1001 to 10,000 colonies (thus 10,000 cfu/mL to 100,000 cfu/mL))
- Grade code S. aureus (Staphylococcus aureus; 1.25%, 3 days incubation): 4 (1001 to 10,000 colonies (thus 10,000 cfu/mL to 100,000 cfu/mL))
- Grade code S. aureus (Staphylococcus aureus; 1.25%, 14 days incubation): 4 (1001 to 10,000 colonies (thus 10,000 cfu/mL to 100,000 cfu/mL))
- Grade code S. aureus (Staphylococcus aureus; 1.25%, 30 days incubation): 4 (1001 to 10,000 colonies (thus 10,000 cfu/mL to 100,000 cfu/mL))
- Grade code S. aureus (Staphylococcus aureus; 2.5%, 3 days incubation): 4 (1001 to 10,000 colonies (thus 10,000 cfu/mL to 100,000 cfu/mL))
- Grade code S. aureus (Staphylococcus aureus; 2.5%, 14 days incubation): 4 (1001 to 10,000 colonies (thus 10,000 cfu/mL to 100,000 cfu/mL))
- Grade code S. aureus (Staphylococcus aureus; 2.5%, 30 days incubation): 4 (1001 to 10,000 colonies (thus 10,000 cfu/mL to 100,000 cfu/mL))
- Grade code S. epidermidis ([1]; 0.5%, 3 days incubation): 4 (1001 to 10,000 colonies (thus 10,000 cfu/mL to 100,000 cfu/mL))
- Grade code S. epidermidis ([1]; 0.5%, 13 days incubation): 4 (1001 to 10,000 colonies (thus 10,000 cfu/mL to 100,000 cfu/mL))
- Grade code S. epidermidis ([1]; 0.5%, 30 days incubation): 4 (1001 to 10,000 colonies (thus 10,000 cfu/mL to 100,000 cfu/mL))
- Grade code S. epidermidis ([1]; 1.25%, 3 days incubation): 4 (1001 to 10,000 colonies (thus 10,000 cfu/mL to 100,000 cfu/mL))
- Grade code S. epidermidis ([1]; 1.25%, 13 days incubation): 3.7
- Grade code S. epidermidis ([1]; 1.25%, 30 days incubation): 4 (1001 to 10,000 colonies (thus 10,000 cfu/mL to 100,000 cfu/mL))
- Grade code S. epidermidis ([1]; 2.5%, 3 days incubation): 4 (1001 to 10,000 colonies (thus 10,000 cfu/mL to 100,000 cfu/mL))
- Grade code S. epidermidis ([1]; 2.5%, 13 days incubation): 3 (101 to 1000 colonies (thus 1000 to 10,000 cfu/mL))
- Grade code S. epidermidis ([1]; 2.5%, 30 days incubation): 4 (1001 to 10,000 colonies (thus 10,000 cfu/mL to 100,000 cfu/mL))
- Grade code S. mutans (Streptococcus mutans; 0.5%, 3 days incubation): 5 (More than 10,000 colonies estimated (thus >100,000 cfu/mL))
- Grade code S. mutans (Streptococcus mutans; 0.5%, 13 days incubation): 4 (1001 to 10,000 colonies (thus 10,000 cfu/mL to 100,000 cfu/mL))
- Grade code S. mutans (Streptococcus mutans; 0.5%, 30 days incubation): 4 (1001 to 10,000 colonies (thus 10,000 cfu/mL to 100,000 cfu/mL))
- Grade code S. mutans (Streptococcus mutans; 1.25%, 3 days incubation): 4 (1001 to 10,000 colonies (thus 10,000 cfu/mL to 100,000 cfu/mL))
- Grade code S. mutans (Streptococcus mutans; 1.25%, 13 days incubation): 4 (1001 to 10,000 colonies (thus 10,000 cfu/mL to 100,000 cfu/mL))
- Grade code S. mutans (Streptococcus mutans; 1.25%, 30 days incubation): 4 (1001 to 10,000 colonies (thus 10,000 cfu/mL to 100,000 cfu/mL))
- Grade code S. mutans (Streptococcus mutans; 2.5%, 3 days incubation): 4 (1001 to 10,000 colonies (thus 10,000 cfu/mL to 100,000 cfu/mL))
- Grade code S. mutans (Streptococcus mutans; 2.5%, 13 days incubation): 4 (1001 to 10,000 colonies (thus 10,000 cfu/mL to 100,000 cfu/mL))
- Grade code S. mutans (Streptococcus mutans; 2.5%, 30 days incubation): 4 (1001 to 10,000 colonies (thus 10,000 cfu/mL to 100,000 cfu/mL))
